Holding throughout (type): functional
For test [1], the system named is Haemophilus influenzae. Put plainly: Antimicrobial activity against beta-lactamase positive Haemophilus influenzae expressing […] gene by microdilution method.
Test [2] relates to Haemophilus influenzae. Put plainly: Antimicrobial activity against beta-lactamase positive, ampicillin-clavulanic acid resistant Haemophilus influenzae expressing […] mutant gene by microdilution method.
For test [3], the system named is Haemophilus influenzae. Put plainly: Antimicrobial activity against beta-lactamase positive Haemophilus influenzae expressing […] gene assessed as resistant isolates by microdilution method.
Test [4] relates to Haemophilus influenzae. Put plainly: Antimicrobial activity against beta-lactamase negative Haemophilus influenzae expressing […] gene by microdilution method.
In test [5] the test system is Haemophilus influenzae. Kind of test: Antimicrobial activity against beta-lactamase negative, ampicillin-resistant Haemophilus influenzae expressing […] mutant gene by microdilution method.
Test [6] relates to Haemophilus influenzae. Put plainly: Antimicrobial activity against beta-lactamase positive, ampicillin-clavulanic acid resistant Haemophilus influenzae expressing […] mutant gene assessed as resistant isolates by microdilution method.
For test [7], the system named is Haemophilus influenzae. Kind of test: Antimicrobial activity against beta-lactamase negative, ampicillin-resistant Haemophilus influenzae expressing […] mutant gene assessed as resistant isolates by microdilution method.
Test [8] concerns Haemophilus influenzae. Kind of test: Antimicrobial activity against beta-lactamase negative Haemophilus influenzae expressing […] gene assessed as resistant isolates by microdilution method.
Test [9] deals with Haemophilus influenzae. Put plainly: Antimicrobial activity against beta-lactamase positive, ampicillin-clavulanic acid resistant Haemophilus influenzae expressing […] mutant gene assessed as resistant isolates by microdilution method in presence of beta-lactamase inhibitor clavulanic acid.
The test system of test [10] is Haemophilus influenzae. Kind of test: Antimicrobial activity against beta-lactamase positive, ampicillin-clavulanic acid resistant Haemophilus influenzae expressing […] mutant gene by microdilution method in presence of beta-lactamase inhibitor clavulanic acid.
Test [11] relates to Haemophilus influenzae. Put plainly: Antimicrobial activity against beta-lactamase negative, ampicillin-resistant Haemophilus influenzae expressing […] mutant gene assessed as resistant isolates by microdilution method in presence of beta-lactamase inhibitor clavulanic acid.
For test [12], the system named is Haemophilus influenzae. Put plainly: Antimicrobial activity against beta-lactamase negative, ampicillin-resistant Haemophilus influenzae expressing […] mutant gene by microdilution method in presence of beta-lactamase inhibitor clavulanic acid.
In test [13] the test system is Haemophilus influenzae. Kind of test: Antimicrobial activity against beta-lactamase positive Haemophilus influenzae expressing […] gene by microdilution method in presence of beta-lactamase inhibitor clavulanic acid.
Test [14] concerns Haemophilus influenzae. Kind of test: Antimicrobial activity against beta-lactamase positive Haemophilus influenzae expressing […] gene assessed as resistant isolates by microdilution method in presence of beta-lactamase inhibitor clavulanic acid.
Test [15] relates to Haemophilus influenzae. Kind of test: Antimicrobial activity against beta-lactamase negative Haemophilus influenzae expressing […] gene by microdilution method in presence of beta-lactamase inhibitor clavulanic acid.

≈ marks a conversion by molar mass, not a printed value.

Take `C=CC1=C(C(=O)O)N2C(=O)[C@@H](NC(=O)/C(=N\O)c3csc(N)n3)[C@H]2SC1` [CEFDINIR]: the MIC50 in [1] worked out at 0.5 µg/mL (≈ 1.26 µM); in test [2], 2 µg/mL; in [4], 1 µg/mL (≈ 2.53 µM); in [5], 2 µg/mL (≈ 5.06 µM). The MIC90 in test [1] turned out to be 4 µg/mL (≈ 10.1 µM); in test [2], 4 µg/mL; in test [4], 4 µg/mL (≈ 10.1 µM); in [5], 8 µg/mL (≈ 20.2 µM). The Activity is recorded as 33.3% in test [3], 52.3% in [6], 57% in test [7] and 40% in [8].

For `CO/N=C(\C(=O)N[C@@H]1C(=O)N2C(C(=O)O)=C(COC(C)=O)CS[C@H]12)c1csc(N)n1` [CEFOTAXIME], the MIC50 in [1] came out at 0.03 µg/mL (≈ 0.0659 µM); in test [2] it was 0.03 µg/mL; in [4], 0.03 µg/mL (≈ 0.0659 µM); in test [5], 0.06 µg/mL (≈ 0.132 µM). Besides, the MIC90 in test [1] was determined as 0.06 µg/mL (≈ 0.132 µM); in [2], 0.25 µg/mL; in test [4], 0.25 µg/mL (≈ 0.549 µM); in [5], 0.5 µg/mL (≈ 1.1 µM). For the same compound, the Activity worked out at 0% in [3], 0% in [6], 0.8% in test [7] and 0% in test [8].

Consider `CC1(C)S[C@@H]2[C@H](NC(=O)[C@H](N)c3ccc(O)cc3)C(=O)N2[C@H]1C(=O)O` [AMOXICILLIN], for which the Activity in test [9] was 25%; in test [11], 9.9%; in test [14] it was 4.8%. Moreover, the MIC50 in [10] amounted to 4 µg/mL; in [12], 2 µg/mL; in test [13], 2 µg/mL; in [15] it was 0.5 µg/mL. In addition, the MIC90 in test [10] came to 8 µg/mL; in [12], 4 µg/mL; in test [13], 4 µg/mL; in test [15], 4 µg/mL.

On to `CO/N=C(\C(=O)N[C@@H]1C(=O)N2C(C(=O)OCOC(=O)C(C)(C)C)=C(/C=C\c3scnc3C)CS[C@H]12)c1csc(N)n1` [CEFDITOREN PIVOXIL], for which the MIC50 is 0.03 µg/mL (≈ 0.0483 µM) in [1], 0.03 µg/mL in test [2], 0.03 µg/mL (≈ 0.0483 µM) in test [4] and 0.06 µg/mL (≈ 0.0967 µM) in test [5]. Moreover, the MIC90 in test [1] came to 0.06 µg/mL (≈ 0.0967 µM); in [2] it was 0.06 µg/mL; in test [4], 0.06 µg/mL (≈ 0.0967 µM); in test [5], 0.06 µg/mL (≈ 0.0967 µM).

Turning to `N[C@@H](C(=O)N[C@@H]1C(=O)N2C(C(=O)O)=C(Cl)CS[C@H]12)c1ccccc1` [CEFACLOR ANHYDROUS], the MIC50 in [1] is 32 µg/mL (≈ 87 µM); in test [2] it was 32 µg/mL; in test [4], 8 µg/mL (≈ 21.8 µM); in test [5], 32 µg/mL (≈ 87 µM). Also, the MIC90 was at least 128 µg/mL in test [1], 64 µg/mL in test [2] and 32 µg/mL (≈ 87 µM) in test [4]. The Activity in test [3] amounted to 76.2%; in [6] it was 86.4%; in [7], 70.2%; in [8], 40%.

As for `CO/N=C(\C(=O)N[C@@H]1C(=O)N2C(C(=O)O)=C(COC(N)=O)CS[C@H]12)c1ccco1` [CEFUROXIME], the MIC50 in test [1] was 2 µg/mL (≈ 4.71 µM); in test [2], 4 µg/mL; in test [4], 1 µg/mL (≈ 2.36 µM); in [5], 4 µg/mL (≈ 9.43 µM). Also, the MIC90 in [1] stood at 8 µg/mL (≈ 18.9 µM); in test [2], 16 µg/mL; in test [4] it was 8 µg/mL (≈ 18.9 µM); in test [5], 16 µg/mL (≈ 37.7 µM). Also, the Activity stood at 19% in [3], 45.4% in test [6], 48.8% in [7] and 20% in test [8].

As for `CC1(C)S[C@@H]2[C@H](NC(=O)[C@H](N)c3ccccc3)C(=O)N2[C@H]1C(=O)O` [AMPICILLIN], the MIC50 is at least 128 µg/mL in test [1], 1 µg/mL (≈ 2.86 µM) in test [4] and 2 µg/mL (≈ 5.72 µM) in [5]. The MIC90 in [1] was at least 128 µg/mL; in test [4], 2 µg/mL (≈ 5.72 µM); in [5] it was 4 µg/mL (≈ 11.4 µM). In addition, the Activity in [3] turned out to be 100%; in test [6] it was 95.5%; in test [7], 98.3%; in test [8] it was 30%.
